Inconclusive results and toxic doses are left out. Cut-off read from the data, not from the text of the source: active = T/C of 150% or more; inactive = T/C below 125%.
Test system: L1210 leukemia ip in BDF1 mice, survival T/C
Test: NCI In Vivo Anticancer Drug Screen. Data for tumor model L1210 Leukemia (intraperitoneal) in B6D2F1 (BDF1) mice
Conditions: endpoint: mean survival time, higher = longer survival
Outline: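 In this screen, tumor-bearing mice given compound are compared to those given vehicle, and their survival values are reported as a treated-to-control quotient.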

[1] = dose: 25.0 mg/kg/injection, schedule: Q01DX009 (ip), vehicle: saline
[2] = dose: 50.0 mg/kg/injection, schedule: Q01DX009 (ip), vehicle: saline
[3] = dose: 100.0 mg/kg/injection, schedule: Q04DX002 (ip), vehicle: saline with Tween-80
[4] = dose: 200.0 mg/kg/injection, schedule: Q04DX002 (ip), vehicle: saline with Tween-80
[5] = dose: 100.0 mg/kg/injection, schedule: Q01DX009 (ip), vehicle: saline
[6] = dose: 200.0 mg/kg/injection, schedule: Q01DX009 (ip), vehicle: saline
[7] = dose: 400.0 mg/kg/injection, schedule: Q01DX009 (ip), vehicle: saline
[8] = dose: 100.0 mg/kg/injection, schedule: Q04DX003 (ip), vehicle: saline
[9] = dose: 200.0 mg/kg/injection, schedule: Q04DX003 (ip), vehicle: saline
[10] = dose: 400.0 mg/kg/injection, schedule: Q04DX003 (ip), vehicle: saline
[11] = dose: 100.0 mg/kg/injection, schedule: Q04DX003 (ip), vehicle: Klucel (hydroxypropylcellulose) (HPC)
[12] = dose: 200.0 mg/kg/injection, schedule: Q04DX003 (ip), vehicle: Klucel (hydroxypropylcellulose) (HPC)

Measured: T/C

CCCCNC(C)(C)CO
inactive: dose: 12.5 mg/kg/injection, schedule: Q01DX009 (ip), vehicle: saline 106 % of control | dose: 12.5 mg/kg/injection, schedule: Q04DX003 (ip), vehicle: saline 100 % of control | [1] 112 % of control | dose: 25.0 mg/kg/injection, schedule: Q04DX003 (ip), vehicle: saline 97 % of control | [2] 109 % of control | dose: 50.0 mg/kg/injection, schedule: Q04DX003 (ip), vehicle: saline 102 % of control | dose: 75.0 mg/kg/injection, schedule: Q01DX009 (ip), vehicle: saline 105 % of control

CCOC(CCl)(OCC)OCC
inactive: [3] 97 % of control | [4] 90 % of control

O=C(O)CCCSCCSCCCC(=O)O
inactive: [5] 97 % of control | [6] 103 % of control | [7] 86 % of control

COCCN(CCOC)/N=N/c1nc[nH]c1C(N)=O
inactive: dose: 50.0 mg/kg/injection, schedule: Q01DX001 (ip), vehicle: water 104 % of control | dose: 50.0 mg/kg/injection, schedule: Q04DX003 (ip), vehicle: water 98 % of control | dose: 100.0 mg/kg/injection, schedule: Q01DX001 (ip), vehicle: water 102 % of control | dose: 100.0 mg/kg/injection, schedule: Q04DX003 (ip), vehicle: water 107 % of control | dose: 200.0 mg/kg/injection, schedule: Q01DX001 (ip), vehicle: water 101 % of control | dose: 200.0 mg/kg/injection, schedule: Q04DX003 (ip), vehicle: water 100 % of control | dose: 400.0 mg/kg/injection, schedule: Q01DX001 (ip), vehicle: water 102 % of control | dose: 400.0 mg/kg/injection, schedule: Q04DX003 (ip), vehicle: water 111 % of control

O=P(O)(Nc1ccccc1)Nc1ccccc1
inactive: [3] 113 % of control | [4] 103 % of control | dose: 400.0 mg/kg/injection, schedule: Q04DX002 (ip), vehicle: saline with Tween-80 113 % of control

NC(=O)CCC(C(=O)O)N1C(=O)C2C3CCC(C3)C2C1=O (stereo unspecified)
inactive: [8] 98 % of control | [9] 95 % of control | [10] 95 % of control

CC(=O)Oc1ccc(OC(C)=O)c2c1CC1(C)OC1(C)C2 (stereo unspecified)
inactive: [1] 104 % of control | [2] 91 % of control | [5] 89 % of control | [6] 93 % of control | [7] 89 % of control

N#CC(NC(=O)NCCCl)c1ccccc1 (stereo unspecified)
inactive: [11] 104 % of control | [12] 101 % of control

OC1CCCCC1c1ccccc1 (stereo unspecified)
inactive: dose: 50.0 mg/kg/injection, schedule: Q01DX009 (ip), vehicle: saline with Tween-80 87 % of control | dose: 100.0 mg/kg/injection, schedule: Q01DX009 (ip), vehicle: saline with Tween-80 87 % of control | dose: 200.0 mg/kg/injection, schedule: Q01DX009 (ip), vehicle: saline with Tween-80 97 % of control

Cc1sc2c(c1-c1ccccc1)C(=O)CCCN2
inactive: dose: 100.0 mg/kg/injection, schedule: Q04DX003 (ip), vehicle: saline with Tween-80 94 % of control | dose: 200.0 mg/kg/injection, schedule: Q04DX003 (ip), vehicle: saline with Tween-80 100 % of control | dose: 400.0 mg/kg/injection, schedule: Q04DX003 (ip), vehicle: saline with Tween-80 100 % of control

O=C(COc1ccc(Cl)cc1Cl)NO
inactive: dose: 100.0 mg/kg/injection, schedule: Q01DX009 (ip), vehicle: Klucel (hydroxypropylcellulose) (HPC) 104 % of control | [11] 102 % of control | dose: 200.0 mg/kg/injection, schedule: Q01DX009 (ip), vehicle: Klucel (hydroxypropylcellulose) (HPC) 109 % of control | [12] 104 % of control | dose: 400.0 mg/kg/injection, schedule: Q01DX009 (ip), vehicle: Klucel (hydroxypropylcellulose) (HPC) 101 % of control | dose: 400.0 mg/kg/injection, schedule: Q04DX003 (ip), vehicle: Klucel (hydroxypropylcellulose) (HPC) 106 % of control

COc1ccc2c(c1)N(C)CCCC2=O
inactive: [8] 96 % of control | [9] 112 % of control | [10] 87 % of control

COCCCNCCCN1CC1
inactive: dose: 31.25 mg/kg/injection, schedule: Q04DX003 (ip), vehicle: saline 105 % of control | dose: 62.5 mg/kg/injection, schedule: Q01DX009 (ip), vehicle: saline 106 % of control | dose: 62.5 mg/kg/injection, schedule: Q04DX003 (ip), vehicle: saline 114 % of control

— PubChem BioAssay AID248 (DTP/NCI, 2004)
